Consider 86 compounds from a melting point compilation (Tetko et al.; mined from patent text by program, amines drawn as free bases though some values may be those of a salt).

Some results are limits rather than exact numbers.

In general, melting point refers to the temperature, or range, at which the solid turns liquid.

For `COC(=O)c1ccc2c(c1)OCCO2`, the melting point lay within 43 to 45 °C.

The compound `O=[N+]([O-])c1ccc(SCCCCl)cc1` gave a melting point of 50 to 52 °C.

In turn, `O=C(NNc1ccc(NC(=S)NCc2ccccc2)cc1)c1ccc(Cl)cc1` showed a melting point of 197 to 199 °C.

The compound `COc1ccc(CCc2cc(OC)c(OC)c(OC)c2)cc1` registered a melting point of 73 to 75 °C.

Turning to `Cc1ccc(S(=O)(=O)N(Cc2cc(C(C)(C)C)c(O)c(C(C)(C)C)c2)c2ccc(Cl)nc2)cc1`, the melting point fell in the range of 152 to 153 °C.

On to `CC1(C)OC(/C=C/c2ccc(Br)cc2)=CC1=O`, for which the melting point is 109 to 110 °C.

As to `Cc1cc(Nc2ccnc(Nc3ccc(S(=O)(=O)N(C)C4CCN(Cc5nccs5)CC4)cc3)n2)ccc1F`, the melting point is 176 to 177 °C.

Regarding `O=C(CCc1ccccc1)c1ccc2n1Cc1ccccc1N(C(=O)COc1ccc(Cl)cc1)C2`, the melting point was in the range of 126 to 128 °C.

`CC(C)OC(=O)Nc1ccc(N)c(N)c1`: the melting point was 108 to 110 °C.

For the compound `CCCN1C=CSC1S(=O)(=O)N=NC(=O)Nc1nc(OC)cc(OC)n1` (stereo unspecified), the melting point lay in the range of 166 to 167 °C.

`O=C1NC(=O)c2c(Sc3ccc(Cl)cc3)c(Sc3ccc(Cl)cc3)c(Sc3ccc(Cl)cc3)c(Br)c21` came in with a melting point of 164 to 169 °C.

Regarding `CCOc1cc(Cc2cnc(N)nc2N)cc2c1OC(C)(C)C=C2Cl`, the melting point was 197 to 199 °C.

With `CC(C)c1ccccc1-n1c(=O)[nH]c2c(C(N)=O)nc(-c3ccc(-c4nc[nH]n4)cc3)nc21`, the melting point came out at 368 °C.

Turning to `CC(C)(C)OC(=O)Nc1ccc(C#Cc2ccc(Cl)cc2)cc1[N+](=O)[O-]`, the melting point lay within 213 to 218 °C.

With `CS(=O)(=O)c1ccc(Oc2ccc(C#N)cc2)cc1`, the melting point fell in the range of 127 to 128 °C.

In turn, `Cc1oc2ccccc2c1C(=O)N(Cc1ccccc1)Cc1ccc2c(Br)c(OCC#N)ccc2c1` showed a melting point of 145 to 146 °C.

The compound `CC1(C)OC(=O)c2ccc(C(c3c(F)cc([N+](=O)[O-])cc3F)n3cncn3)cc21` (stereo unspecified) displayed a melting point of 163 to 164 °C.

With `O=C(Nc1ccc2ccc(Cl)nc2n1)c1ccc(Cl)cc1`, the melting point turned out to be 268 °C.

Compound `COc1cc2c(cc1OC)OC(C#N)C2` (stereo unspecified) showed a melting point of 162 °C.

For the compound `Cc1nc(CC2OC(COC(=O)c3ccccc3)C(O)C2O)n2nc(Cl)ccc12` (stereo unspecified), the melting point lay within 155 to 157 °C.

With `CN1C(=O)c2cccnc2N(CC(=O)OC(C)(C)C)c2ccccc21`, the melting point is 64 to 65 °C.

`CC(c1ccc2c(c1)Cc1ccccc1-2)n1ccnn1` (stereo unspecified): the melting point is 160 to 162 °C.

The compound `O=C1NN=C(c2cccc(Br)c2)CC1O` (stereo unspecified) showed a melting point of 158 to 161 °C.

`C=CCc1cc2c(c(CC=C)c1O)OCC(=O)N2CC=C` displayed a melting point of 91 to 92 °C.

Turning to `COc1cccc([C@H]2O[C@H](CC(=O)Nc3cc(CCC(=O)O)ccc3OC(C)C)C(=O)N(CC(C)(C)CO)c3ccc(Cl)cc32)c1OC`, the melting point was 133 to 136 °C.

As for `CC(=O)c1ccc(C(C)ON2C(C)(C)CCCC2(C)C)cc1` (stereo unspecified), the melting point lay in the range of 61.5 to 63 °C.

The compound `CN(C)C(=O)c1ccncc1-c1nc(-c2ccc(Cl)cc2)cs1` showed a melting point of 195 °C.

`CC(C)N1CCC(CNc2ccccc2C(=O)Nc2ccc(Cl)cn2)CC1` registered a melting point of 277 to 280 °C.

Compound `COCCOC(=O)NC(=O)CCCCCN=C=O` gave a melting point of 77 °C.

With `O=C(c1cc2cc(OCc3ccccc3)ccc2[nH]1)C12CC3CC(CC(C3)C1)C2`, the melting point fell in the range of 189 to 191 °C.

Compound `Nc1ccnc(N2CCC(c3ccc(S(N)(=O)=O)cc3)CC2)c1` had a melting point of 290 to 295 °C.

`CON(C(=O)c1cn(C)nc1C(F)F)C(C)C1CCC(C)=CC1(C)C` (stereo unspecified) showed a melting point of 95 to 105 °C.

`CCC1(CC)OC(=S)Nc2ccc(-c3cccc([N+](=O)[O-])c3)cc21` showed a melting point of 180 to 181 °C.

Take `CC(=O)Oc1ccc(-c2c(CBr)c3ccc(F)cc3oc2=O)c(OC(C)=O)c1`: the melting point fell in the range of 230 to 231 °C.

For the compound `COC(=O)C1=Cc2cccc(C=O)c2OCC1`, the melting point is 122 to 124 °C.

Take `CN1CCN(C(=O)COC2c3ccccc3C(=O)N2c2ccc3ccc(Cl)nc3n2)CC1` (stereo unspecified): the melting point was 175 °C.

In turn, `O=C1C=c2cc3c(cc2CC1=O)=CCO3` displayed a melting point of 158 to 160 °C.

`O=C(Nc1ccc2ccc(Cl)nc2n1)C1CCC1`: the melting point was 192 °C.

For the compound `Cc1ccc(-n2c(=O)n(O)c(=O)c3cc(F)c(N4CCCC4)nc32)cc1`, the melting point lay in the range of 228 to 230 °C.

Turning to `C=CCNC1=NS(=O)(=O)c2cc(Cl)cnc2N1`, the melting point lay in the range of 224 to 227 °C.

Turning to `CCCCCCCCCC(CC)SCCCCCCCCCCN1C(=O)CCC1=O` (stereo unspecified), the melting point worked out at 86 °C.

Turning to `CSC1(N)N=C(N(C)C)N=C(N)N1` (stereo unspecified), the melting point lay within 207 to 212 °C.

Compound `O=C(O)[C@@H](Cc1ccccn1)Nc1cc(-c2ccc(OCc3ccccc3)cc2)ncn1` showed a melting point of 142 °C.

`COc1ccc(S(=O)(=O)C(C)(Cc2ccc(-c3ccccc3)cc2)C(=O)O)cc1` (stereo unspecified) gave a melting point of 161 °C.

`CC(C(O)CCc1ccc(OC(F)(F)F)cc1)n1cncn1` (stereo unspecified) came in with a melting point of 69 °C.

Consider `COC(=O)C=CC(=O)NC(N)=O`, for which the melting point lay within 112 to 114 °C.

In turn, `CC1(C)CCC(Cc2ccc(Cl)cc2)=C(O)C1=O` had a melting point of 80 to 82 °C.

Compound `CCCn1c(=O)c2[nH]c(-c3cc(C)n(CC(=O)Nc4ccc(Cl)c(Cl)c4)n3)nc2n(CCC)c1=O` showed a melting point of 298 °C.

As to `CN(C)C1CCCC(C(=O)N2CCC(c3[nH]nc4c3C(=O)c3c(NC(=O)NN5CCOCC5)cccc3-4)CC2)C1` (stereo unspecified), the melting point was in the range of 153 to 155 °C.

`Cc1ccc2c(c1)C=Cc1cc(C)ccc1C2c1cn(Cc2nc(C(=O)O)co2)c(=O)[nH]c1=S` came in with a melting point of 273 °C.

`Cc1c(Cl)cccc1S(=O)(=O)Nc1nc(CC(=O)N2CCSCC2)cs1` gave a melting point of 103 to 106 °C.

As to `CC(C)(C)OC(=O)Nc1ccc(CC(=O)N2CCC(c3[nH]nc4c3C(=O)c3c(NC(=O)NN5CCOCC5)cccc3-4)CC2)cc1`, the melting point was in the range of 177 to 178 °C.

Turning to `O=C(O)C(Cc1ccccc1)Oc1c(Br)cc(-c2c(Br)ccc3sc4ccccc4c23)cc1Br` (stereo unspecified), the melting point is 98 to 100 °C.

`NCc1nnc2n1-c1sc(Cl)cc1C(c1ccccc1Cl)=NC2` came in with a melting point of 190 to 192 °C.

`CC(C)(C)C(=O)OC1=CC(=O)C(=O)c2ccccc21` displayed a melting point of 125 to 126 °C.

The compound `CC(C)n1nc(-c2sc(NC(=O)c3ccccc3)nc2-c2ccccc2)ccc1=O` yielded a melting point of 126 to 129 °C.

For the compound `NC(=O)c1nnsc1NCCCCCCCCCCCCCCc1ccccc1`, the melting point was in the range of 79 to 81 °C.

The compound `CCc1[nH]n(C2CCCC2)c2nc(-c3cc(C)nc(-n4ccnc4)c3)nc(=O)c1-2` returned a melting point of 277 to 278 °C.

In turn, `COC(=O)CCc1cc(NC(=O)c2ccc(C(=O)Nc3cc(CCC(=O)OC)cc(C(C)(C)C)c3O)s2)c(O)c(C(C)(C)C)c1` returned a melting point of 172 to 173 °C.

Regarding `CCN(C(=O)C(NS(=O)(=O)c1c(C)cc(C)cc1C)C(C)C)c1ccccc1` (stereo unspecified), the melting point was 156 to 158 °C.

For `CC1NC(=NC2CNCCO2)N(CCO)C1C` (stereo unspecified), the melting point lay within 108 to 109 °C.

The compound `COC(=O)c1cc2c(cn1)[nH]c1ccc(Oc3ccc([N+](=O)[O-])cn3)cc12` yielded a melting point of 150 to 155 °C.

For the compound `CC(C)Oc1ccc2ccc(C(N)=O)c(OC(C)C)c2c1`, the melting point lay in the range of 145 to 146 °C.

Compound `CC(=O)N[C@@H](C)COC1CCN(c2nc3ccc(OCC4CC4)cc3s2)CC1` had a melting point of 121 to 122 °C.

Compound `NCCCn1cnc(-c2ccc(F)cc2)c1-c1ccncc1` registered a melting point of 81 to 82 °C.

Consider `Cn1c(=O)c2[nH]c(C=Cc3cccc(N)c3)nc2n(C)c1=O`, for which the melting point is > 300 °C.

In the case of `Cn1c(COc2ccc(CC3SC(=O)NC3=O)cc2)nc2cc(C(F)(F)F)cnc21` (stereo unspecified), the melting point lay within 212 to 214 °C.

`Cc1cc(S(=O)(=O)N2c3ccccc3-c3ccccc3C2C)ccc1O` (stereo unspecified) showed a melting point of 186 to 188 °C.

The compound `CCOC(=O)CN1CCC(CNC(=O)c2cc(Cl)c(N)[nH]c2=O)CC1` had a melting point of 162 to 164 °C.

Compound `CC(=O)Oc1ccc2cccc(OS(=O)(=O)C(F)(F)F)c2n1` gave a melting point of 90 °C.

In turn, `Cc1cccc(NC(=O)NC2N=C(C3CCCCC3)c3ccccc3N(Cc3ccccn3)C2=O)c1` (stereo unspecified) came in with a melting point of 157 to 163 °C.

`O=S(=O)(Nc1ccc(Cl)cc1Sc1ccc(Cl)cc1)C(F)(F)F`: the melting point fell in the range of 83 to 84 °C.

Compound `COc1ccc(Nc2cnc3c(NCc4ccccc4)nc(NCCO)nc3c2)cc1` yielded a melting point of 126 to 127 °C.

As to `OC1CCc2c(Cl)cc(Cl)c(I)c21` (stereo unspecified), the melting point is 95 to 100 °C.

Turning to `COC(=O)CN(C)c1cc(-c2ccc(Cl)cc2)on1`, the melting point was 141 °C.

As for `CCCCn1c(=O)c2c(N(C)C)n[nH]c2n(Cc2ccccc2)c1=O`, the melting point was 177 to 179 °C.

The compound `O=C(C1CCCCC1)C1CCN(Cc2cc(O)c(O)cc2[N+](=O)[O-])CC1` registered a melting point of 240 °C.

Take `CCC(Oc1cc(C)c(Cl)c(C)c1)C(=O)NCc1cccs1` (stereo unspecified): the melting point lay in the range of 105 to 107 °C.

On to `Cn1c2ccc(-c3nnn[nH]3)cc2c(=O)c2cc(-c3nnn[nH]3)ccc21`, for which the melting point is > 400 °C.

In turn, `O=C(C(=O)c1ccc(Cl)cc1)c1ccncc1` came in with a melting point of 119 to 120 °C.

The compound `CNc1ccc(-c2ncn(-c3ccc(C(F)(F)F)cc3)n2)cc1` came in with a melting point of 106 to 113 °C.

For the compound `COc1cn(-c2ccccc2F)nc(-c2ccnn2-c2ccccc2)c1=O`, the melting point fell in the range of 163 to 165 °C.

`Cc1ccc(S(=O)(=O)OCC2Cc3cc(Cl)cc(OS(=O)(=O)C(F)(F)F)c3O2)cc1` (stereo unspecified) showed a melting point of 55 to 57 °C.

`CONC(=O)Nc1ccc(-c2sc3c(c2CN(C)C(C)c2ccccc2)c(=O)n(-c2ccc(F)cn2)c(=O)n3Cc2c(F)cccc2F)cc1` (stereo unspecified) showed a melting point of 128 to 130 °C.

In the case of `CC(C)Cn1nnc(-c2cccc(-c3ccnc4c(C(=O)c5cccs5)cnn34)c2)n1`, the melting point was 141 °C.

In the case of `CSc1ccc(-c2nn(CC=Cc3ccc(Cl)cc3)c(=O)cc2-c2ccc(F)cc2)cc1`, the melting point is 119 °C.
